Measured values published in US20240262803A1, “COMPOUNDS, COMPOSITIONS AND METHODS OF TREATING DISORDERS” (Chungdu Anticancer Bioscience Ltd, priority 2021, published 2024).
Entries after “also recorded” stand apart in the source; their conditions may differ. Where two headings read alike, the source gives them in different places.

Legend:
[1] = test system: liver cancer cell line T2 HCC; test: Minimal effective concentration that elicits polyploidy, T2 HCC; format: cell-based; conditions: Mus musculus, read-out: MECP: Minimal effective concentration that elicits polyploidy
[2] = test system: colon cancer cell line SW460; test: MTT assay of cellular proliferation, SW460; format: cell-based; conditions: Homo sapiens, SW480; read-out: EC50: Concentration that inhibits 50% of proliferation
Procedure, shortened: (§1)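 First, mid-log cells are seeded in DMEM containing 5% FBS and grown 15˜24 h to 20˜30% confluence. Next, compounds are added across 1 nM to 10 μM. Finally, MTT is given for 3˜4 h, formazan is dissolved and read at A570 to derive EC50.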

[3] = test system: cervical cancer cell line Hela; test: MTT assay of cellular proliferation, Hela; format: cell-based; conditions: Homo sapiens, read-out: EC50: Concentration that inhibits 50% of proliferation
Procedure, shortened: as §1

[4] = test system: lung cancer cell line A549; test: Minimal effective concentration that elicits polyploidy, A549; format: cell-based; conditions: Homo sapiens, read-out: MECP: Minimal effective concentration that elicits polyploidy
[5] = test system: gastric cancer cell line NCI-N87; test: Minimal effective concentration that elicits polyploidy, NCI-N87; format: cell-based; conditions: Homo sapiens, read-out: MECP: Minimal effective concentration that elicits polyploidy
[6] = test system: human colon cancer cell line HCT116; test: Xenograft assay, HCT116; format: in vivo; conditions: HCT116 subcutaneous xenograft, Nu/Nu mice, oral gavage twice a day for 9 days, FIG. 4
Experimental: (§2) Xenografts were initiated in immunocompromised (Nu/Nu) mice with the human lung adenocarcinoma cell line NCI-H23 (FIG. 3) and the human colon cancer cell line HCT116 (FIG. 4). Five million cells were injected subcutaneously into each mouse and treatment was initiated when the average tumor volumes reached 150 mm3 (n=5/groups). Tumor-bearing mice were randomized into different groups to receive either vehicle or indicated compounds. The compounds were administered through oral gavage twice a day for 9 days. Day 0 on the x-axis indicates the day that treatment was initiated. For these experiments, all compounds were first dissolved in DMSO and then diluted 1:10 into a mixture containing 50% PEG300 and 49% PBS, 1% Tween 80, pH2.2. 100 ul of drug solution was administered with each dose. Tumor volumes were determined once every three days and are calculated from digital caliper raw data by using the formula: Volume (mm3)=(L×W^2)/2. The value W (Width) is the smaller of two perpendicular tumor axes and the value L (Length) is the larger of two perpendicular axes. Mean tumor volume growth curves and means are calculated for each treatment group.

[7] = test system: cervical cancer cell line Hela; test: Minimal effective concentration that elicits polyploidy, Hela; format: cell-based; conditions: Homo sapiens, read-out: MECP: Minimal effective concentration that elicits polyploidy
RPEMYC^H2B-GFP cells [8] = test: Mechanism-informed phenotypic screening assay (mitotic arrest, polyploidy; GE IN-Cell Analyzer 2000); format: cell-based; conditions: 20 nM to 20 μM, 24, 48 or 72 hours, read-out: Mitotic Arrest (≥5%)
[9] = test system: breast cancer cell line MDA-MB-231; test: MTT assay of cellular proliferation, MDA-MB-231; format: cell-based; conditions: Homo sapiens, read-out: EC50: Concentration that inhibits 50% of proliferation
Procedure, shortened: as §1

[10] = test system: liver cancer cell line T2 HCC; test: MTT assay of cellular proliferation, T2 HCC; format: cell-based; conditions: Mus musculus, read-out: EC50: Concentration that inhibits 50% of proliferation
Procedure, shortened: as §1

[11] = test system: human lung adenocarcinoma cell line NCI-H23; test: Xenograft assay, NCI-H23; format: in vivo; conditions: NCI-H23 subcutaneous xenograft, Nu/Nu mice, oral gavage twice a day for 9 days, FIG. 3
Experimental: as §2

[12] = test system: lung cancer cell line NCI-H23; test: MTT assay of cellular proliferation, NCI-H23; format: cell-based; conditions: Homo sapiens, read-out: EC50: Concentration that inhibits 50% of proliferation
Procedure, shortened: as §1

SW480 = test: Minimal effective concentration that elicits polyploidy, SW480; format: cell-based; conditions: Homo sapiens, read-out: MECP: Minimal effective concentration that elicits polyploidy
[13] = test system: colon cancer cell line HCT116; test: MTT assay of cellular proliferation, HCT116; format: cell-based; conditions: Homo sapiens, HCT-116, read-out: EC50: Concentration that inhibits 50% of proliferation
Procedure, shortened: as §1

RPEMYC^H2B-GFP cells [14] = test: Mechanism-informed phenotypic screening assay (mitotic arrest, polyploidy; GE IN-Cell Analyzer 2000); format: cell-based; conditions: 20 nM to 20 μM, 24, 48 or 72 hours, read-out: Min. Effective conc. for polyploidy (≥5%)
Procedure, shortened: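 Cells expressing Histone 2B-EGFP (RPEMYC^H2B-GFP) were plated 18-24 h before exposure to compounds at 20 nM to 20 μM. At 24, 48 or 72 h, imaging scored mitotic arrest or change in DNA content. Value is the lowest concentration giving polyploid accumulation at 48 h.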

[15] = test system: lung cancer cell line A549; test: MTT assay of cellular proliferation, A549; format: cell-based; conditions: Homo sapiens, read-out: EC50: Concentration that inhibits 50% of proliferation
Procedure, shortened: as §1

[16] = test system: breast cancer cell line MDA-MB-231; test: Minimal effective concentration that elicits polyploidy, MDA-MB-231; format: cell-based; conditions: Homo sapiens, read-out: MECP: Minimal effective concentration that elicits polyploidy
[17] = test system: gastric cancer cell line NCI-N87; test: MTT assay of cellular proliferation, NCI-N87; format: cell-based; conditions: Homo sapiens, read-out: EC50: Concentration that inhibits 50% of proliferation
Procedure, shortened: as §1

[18] = test system: lung cancer cell line NCI-H23; test: Minimal effective concentration that elicits polyploidy, NCI-H23; format: cell-based; conditions: Homo sapiens, read-out: MECP: Minimal effective concentration that elicits polyploidy
[19] = test system: colon cancer cell line HCT116; test: Minimal effective concentration that elicits polyploidy, HCT116; format: cell-based; conditions: Homo sapiens, HCT-116, read-out: MECP: Minimal effective concentration that elicits polyploidy
[20] = test system: prostate cancer cell line DU145; test: MTT assay of cellular proliferation, DU145; format: cell-based; conditions: Homo sapiens, DU-145, read-out: EC50: Concentration that inhibits 50% of proliferation
Experimental: (§3) Six lung cancer cell lines (NCI-H23, NCI-H460, NCI-H596, NCI-H2170, Calu-6 and A549), two colon cancer cell lines (HCT116 and SW460), one breast cancer cell line MDA-MB-231, one gastric cancer cell line NCI-N87, one prostate cancer cell line DU145, one cervical cancer cell line Hela, and one glioblastoma cell line T98G were obtained from ATCC. The T2 HCC cell line was derived from a mouse liver cancer model initiated by a transgene of MYC (Reference). All cell lines were cultured in DMEM (Gibco, Cleveland, TN, USA) supplemented with 5% fetal bovine serum (Gibco), penicillin (100 U/mL)-streptomycin (100 μg/mL) (Gibco, Cat. No. 15140-122), 2 mM L-glutamine (Gibco, 200 mM solution, Cat. No. 25030081), and 1 mM sodium pyruvate (Gibco, 100 mM solution, Cat. No. 11360070) at 37° C. in a humidified incubator that was maintained at 5% CO2.
(§4) The MTT assay measures cellular metabolic activity as a proxy for cell viability and involves the conversion of the water-soluble yellow dye MTT [3-(4,5-dimethylthiazol-2-yl)-2,5-diphenyltetrazolium bromide] into an insoluble purple formazan by the action of mitochondrial reductase. Formazan is then solubilized and its concentration is determined by measuring the optical density (OD) value at a wavelength of 570 nm. The value is in proportional to the number of live cells with excellent linearity up to ˜10^6 cells per well. The MTT assay was used to determine the EC50 value, the concentration of a compound that leads to 50% inhibition of cellular proliferation. Briefly, cells were split when growing to the mid-Log phase. Cells in 100 μL of culture medium were seeded into each well of 96-well microplates and cultivated for 15˜24 hours to reach a confluence of 20˜30% and were then exposed to drugs at concentrations ranging from 1 nM to 10 μM. At the endpoint, 20 μL of a MTT stock solution in DMSO (5 mg/mL) was added to each well that contains […] of DMEM. The microplates were left in the cell culture incubator for 3˜4 h before subjected to solubilization and determination of formazan at A570 in a microplate reader (BioTek ELX808iu). […] Therefore, these compounds might hold a broad utility in the treatment of a large variety of human malignancies.

[21] = test system: glioblastoma cell line T98G; test: Minimal effective concentration that elicits polyploidy, T98G; format: cell-based, human
[22] = test system: glioblastoma cell line T98G; test: MTT assay of cellular proliferation, T98G; format: cell-based; conditions: Homo sapiens, read-out: EC50: Concentration that inhibits 50% of proliferation
Experimental: as §3, §4

[23] = test system: lung cancer cell line NCI-H596; test: MTT assay of cellular proliferation, NCI-H596; format: cell-based; conditions: Homo sapiens, read-out: EC50: Concentration that inhibits 50% of proliferation
Experimental: as §3, §4

[24] = test system: lung cancer cell line NCI-H460; test: Minimal effective concentration that elicits polyploidy, NCI-H460; format: cell-based, human
[25] = test system: lung cancer cell line NCI-H2170; test: Minimal effective concentration that elicits polyploidy, NCI-H2170; format: cell-based, human
[26] = test system: lung cancer cell line Calu-6; test: MTT assay of cellular proliferation, Calu-6; format: cell-based; conditions: Homo sapiens, read-out: EC50: Concentration that inhibits 50% of proliferation
Experimental: as §3, §4

[27] = test system: prostate cancer cell line DU145; test: Minimal effective concentration that elicits polyploidy, DU145; format: cell-based, human
[28] = test system: lung cancer cell line NCI-H596; test: Minimal effective concentration that elicits polyploidy, NCI-H596; format: cell-based, human
[29] = test system: lung cancer cell line Calu-6; test: Minimal effective concentration that elicits polyploidy, Calu-6; format: cell-based, human
[30] = test system: lung cancer cell line NCI-H2170; test: MTT assay of cellular proliferation, NCI-H2170; format: cell-based; conditions: Homo sapiens, read-out: EC50: Concentration that inhibits 50% of proliferation
Experimental: as §3, §4

[31] = test system: lung cancer cell line NCI-H460; test: MTT assay of cellular proliferation, NCI-H460; format: cell-based; conditions: Homo sapiens, read-out: EC50: Concentration that inhibits 50% of proliferation
Experimental: as §3, §4

Structure (SMILES)	minimal effective concentration [1] [µM]	EC50 [2] [µM]	EC50 [3] [µM]	minimal effective concentration [4] [µM]	minimal effective concentration [5] [µM]	tumor growth (tumor volume) [6]	minimal effective concentration [7] [µM]	minimal effective concentration (RPEMYC^H2B-GFP cells [8]) [µM]	EC50 [9] [µM]	EC50 [10] [µM]	tumor growth (tumor volume) [11]	EC50 [12] [µM]	minimal effective concentration (SW480) [µM]	EC50 [13] [µM]	minimal effective concentration (RPEMYC^H2B-GFP cells [14]) [µM]	EC50 [15] [µM]	minimal effective concentration [16] [µM]	EC50 [17] [µM]	minimal effective concentration [18] [µM]	minimal effective concentration [19] [µM]	other results
COc1cc(Oc2ncccc2-c2ccncc2)cc(C(F)(F)F)c1 [Compound 9, 2-(3-methoxy-5-(trifluoromethyl)phenoxy)-3,4′-bipyridine]	0.001 to 1	0.001 to 1	0.001 to 1	0.001 to 1	0.001 to 1	suppress the growth; also recorded: suppressing the tumor growth; also recorded: eliciting tumor regression	0.001 to 1	1	0.001 to 1	0.001 to 1	suppress the growth; also recorded: suppressing the tumor growth; also recorded: eliciting tumor regression	0.001 to 1	0.001 to 1	0.001 to 1	1	0.001 to 1	0.001 to 1	0.001 to 1	0.001 to 1	0.001 to 1	
COc1cc(Oc2ncccc2-c2ccncc2)cc(-n2cccn2)c1 [Compound 10, 2-(3-methoxy-5-(1H-pyrazol-1-yl)phenoxy)-3,4′-bipyridine]	0.001 to 1	0.001 to 1	0.001 to 1	0.001 to 1	0.001 to 1	suppress the growth; also recorded: suppressing the tumor growth	0.001 to 1	1	0.001 to 1	0.001 to 1	suppress the growth; also recorded: suppressing the tumor growth	0.001 to 1	0.001 to 1	0.001 to 1	1	0.001 to 1	0.001 to 1	0.001 to 1	0.001 to 1	0.001 to 1	
COc1cc(OC)cc(Oc2ncccc2-c2ccnc(N)n2)c1 [Compound 19, 4-(2-(3,5-dimethoxyphenoxy)pyridin-3-yl)pyrimidin-2-amine]	0.001 to 1		0.001 to 1	1 to 10	0.001 to 1		0.001 to 1	1	0.001 to 1	0.001 to 1		0.001 to 1		0.001 to 1	1	1 to 10	0.001 to 1	0.001 to 1	0.001 to 1	0.001 to 1	EC50 [20]: 1 to 10 µM; MECP: Minimal effective concentration that elicits polyploidy [21]: A (A: 1 nM < conc. ≤ 1 μM); EC50 [22]: 0.001 to 1 µM; EC50 [23]: 0.001 to 1 µM; MECP: Minimal effective concentration that elicits polyploidy [24]: A (A: 1 nM < conc. ≤ 1 μM); MECP: Minimal effective concentration that elicits polyploidy [25]: A (A: 1 nM < conc. ≤ 1 μM); EC50 [26]: 0.001 to 1 µM; MECP: Minimal effective concentration that elicits polyploidy [27]: B (B: 1 μM < conc. ≤ 10 μM); MECP: Minimal effective concentration that elicits polyploidy [28]: A (A: 1 nM < conc. ≤ 1 μM); MECP: Minimal effective concentration that elicits polyploidy [29]: A (A: 1 nM < conc. ≤ 1 μM); EC50 [30]: 0.001 to 1 µM; EC50 [31]: 1 to 10 µM
CNC(=O)c1cc(Oc2ncccc2-c2ccnc(OC)c2)cc(OC(F)(F)F)c1 [Compound 29, 3-((2′-methoxy-[3,4′-bipyridin]-2-yl)oxy)-N-methyl-5-(trifluoromethoxy)benzamide]	0.001 to 1	0.001 to 1	0.001 to 1	0.001 to 1	0.001 to 1	suppress the growth; also recorded: suppressing the tumor growth	0.001 to 1	1	0.001 to 1	0.001 to 1	suppress the growth; also recorded: suppressing the tumor growth	0.001 to 1	0.001 to 1	0.001 to 1	1	0.001 to 1	0.001 to 1	0.001 to 1	0.001 to 1	0.001 to 1	
